Results published in the kinase profiling compilation of Christmann-Franck et al. (2016).

Legend:
Test in all cases: radiometric filter-binding kinase assay, Kinaseprofiler
[1] = target: AURKB (human) (UniProt Q96GD4); settings: ATP 10 µM
[2] = target: AURKC (human) (UniProt Q9UQB9); settings: ATP 15 µM
[3] = target: CHEK1 (human) (UniProt O14757); settings: ATP 90 µM
[4] = target: CSF1R (human) (UniProt P07333); settings: ATP 200 µM
[5] = target: GRK7 (human) (UniProt Q8WTQ7); settings: ATP 15 µM
[6] = tested on: GSK3A (human), P49840 [S449A]; settings: ATP 10 µM
[7] = target: HIPK1 (human) (UniProt Q86Z02); settings: ATP 45 µM
[8] = target: HIPK3 (human) (UniProt Q9H422); settings: ATP 15 µM
HIPK3 (human), sequence (Q9H422 whole entry, looked up): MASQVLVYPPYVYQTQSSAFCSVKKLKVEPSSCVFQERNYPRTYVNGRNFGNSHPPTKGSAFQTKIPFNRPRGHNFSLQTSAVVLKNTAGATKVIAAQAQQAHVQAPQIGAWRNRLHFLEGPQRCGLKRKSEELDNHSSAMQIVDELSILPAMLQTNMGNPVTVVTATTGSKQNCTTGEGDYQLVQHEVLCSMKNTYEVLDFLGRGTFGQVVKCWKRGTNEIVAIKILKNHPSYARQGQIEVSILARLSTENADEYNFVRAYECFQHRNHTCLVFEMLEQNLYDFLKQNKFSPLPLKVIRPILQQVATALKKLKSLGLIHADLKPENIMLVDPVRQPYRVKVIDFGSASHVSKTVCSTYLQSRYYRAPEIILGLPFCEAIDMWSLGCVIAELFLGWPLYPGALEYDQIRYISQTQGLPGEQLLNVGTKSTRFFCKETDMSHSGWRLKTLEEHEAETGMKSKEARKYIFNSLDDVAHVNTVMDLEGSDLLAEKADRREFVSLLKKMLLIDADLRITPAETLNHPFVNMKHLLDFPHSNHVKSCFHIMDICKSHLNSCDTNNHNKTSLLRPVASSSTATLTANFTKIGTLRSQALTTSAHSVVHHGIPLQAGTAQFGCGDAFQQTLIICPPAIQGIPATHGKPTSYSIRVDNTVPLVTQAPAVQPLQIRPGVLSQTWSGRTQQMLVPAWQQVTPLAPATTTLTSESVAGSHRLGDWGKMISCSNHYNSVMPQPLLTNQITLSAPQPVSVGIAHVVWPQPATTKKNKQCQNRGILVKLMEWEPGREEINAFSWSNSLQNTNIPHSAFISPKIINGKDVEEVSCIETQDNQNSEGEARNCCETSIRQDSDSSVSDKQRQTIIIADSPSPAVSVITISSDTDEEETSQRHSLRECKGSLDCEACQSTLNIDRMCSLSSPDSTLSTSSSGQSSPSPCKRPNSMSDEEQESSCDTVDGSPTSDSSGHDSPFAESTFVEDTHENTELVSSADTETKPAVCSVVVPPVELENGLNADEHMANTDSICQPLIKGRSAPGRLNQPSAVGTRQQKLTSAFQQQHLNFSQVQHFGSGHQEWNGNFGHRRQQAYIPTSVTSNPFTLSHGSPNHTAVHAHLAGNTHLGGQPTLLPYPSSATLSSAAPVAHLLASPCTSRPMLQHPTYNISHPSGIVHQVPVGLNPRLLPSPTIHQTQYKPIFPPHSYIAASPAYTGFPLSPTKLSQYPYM

[9] = target: IGF1R (human) (UniProt P08069); settings: compound 1.0 µM
[10] = target: INSR (human) (UniProt P06213)
INSR (human), sequence (P06213 whole entry, looked up): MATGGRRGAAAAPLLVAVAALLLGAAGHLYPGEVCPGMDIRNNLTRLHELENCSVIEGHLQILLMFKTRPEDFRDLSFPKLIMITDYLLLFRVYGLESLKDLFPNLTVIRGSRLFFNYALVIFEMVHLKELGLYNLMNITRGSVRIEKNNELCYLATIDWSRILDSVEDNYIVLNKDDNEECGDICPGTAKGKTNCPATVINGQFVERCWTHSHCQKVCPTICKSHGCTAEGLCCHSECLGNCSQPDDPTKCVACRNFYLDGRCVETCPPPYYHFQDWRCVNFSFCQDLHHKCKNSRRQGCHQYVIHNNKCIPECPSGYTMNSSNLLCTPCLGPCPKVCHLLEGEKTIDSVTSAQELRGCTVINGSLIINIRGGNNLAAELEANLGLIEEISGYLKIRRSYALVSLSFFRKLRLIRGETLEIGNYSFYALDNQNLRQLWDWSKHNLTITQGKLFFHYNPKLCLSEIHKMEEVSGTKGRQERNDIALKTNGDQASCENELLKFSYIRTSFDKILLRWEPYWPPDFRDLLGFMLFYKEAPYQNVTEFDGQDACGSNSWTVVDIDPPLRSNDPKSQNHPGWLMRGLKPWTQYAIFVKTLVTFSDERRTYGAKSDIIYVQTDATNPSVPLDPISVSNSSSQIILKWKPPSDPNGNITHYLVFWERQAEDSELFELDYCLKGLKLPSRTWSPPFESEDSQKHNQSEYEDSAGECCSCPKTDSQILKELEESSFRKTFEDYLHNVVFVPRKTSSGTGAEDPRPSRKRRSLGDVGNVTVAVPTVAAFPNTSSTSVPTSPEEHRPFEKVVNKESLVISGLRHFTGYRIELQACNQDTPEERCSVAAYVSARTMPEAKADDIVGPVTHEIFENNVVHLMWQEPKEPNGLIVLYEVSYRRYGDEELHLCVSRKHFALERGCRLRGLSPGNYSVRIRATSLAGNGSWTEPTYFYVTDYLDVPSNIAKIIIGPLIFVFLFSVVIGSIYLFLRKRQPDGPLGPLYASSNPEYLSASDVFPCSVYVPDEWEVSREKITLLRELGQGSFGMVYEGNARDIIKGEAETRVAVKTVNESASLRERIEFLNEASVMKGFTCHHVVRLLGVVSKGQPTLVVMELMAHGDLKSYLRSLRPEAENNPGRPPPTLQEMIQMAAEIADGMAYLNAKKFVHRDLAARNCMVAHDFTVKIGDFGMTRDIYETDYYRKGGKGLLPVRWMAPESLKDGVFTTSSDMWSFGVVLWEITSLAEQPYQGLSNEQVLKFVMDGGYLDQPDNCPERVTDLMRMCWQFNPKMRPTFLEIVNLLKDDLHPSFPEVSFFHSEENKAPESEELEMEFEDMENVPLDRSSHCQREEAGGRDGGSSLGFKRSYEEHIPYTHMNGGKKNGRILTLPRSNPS

[11] = target: INSRR (human) (UniProt P14616); settings: ATP 200 µM
[12] = target: KIT (human) (UniProt P10721); settings: ATP 200 µM
[13] = target: MAP2K1 (human) (UniProt Q02750); settings: ATP 10 µM
[14] = target: MAP2K6 (human) (UniProt P52564); settings: ATP 10 µM
MAP2K6 (human), sequence (P52564 whole entry, looked up): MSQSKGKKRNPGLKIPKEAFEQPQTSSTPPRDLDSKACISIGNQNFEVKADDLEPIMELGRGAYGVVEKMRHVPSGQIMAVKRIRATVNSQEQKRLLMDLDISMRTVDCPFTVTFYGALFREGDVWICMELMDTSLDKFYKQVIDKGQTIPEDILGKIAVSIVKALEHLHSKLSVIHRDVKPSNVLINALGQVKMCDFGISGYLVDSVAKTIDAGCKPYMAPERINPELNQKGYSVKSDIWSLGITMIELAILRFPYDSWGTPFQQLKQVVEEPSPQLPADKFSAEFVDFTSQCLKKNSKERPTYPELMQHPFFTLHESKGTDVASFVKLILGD

[15] = target: NTRK2 (human) (UniProt Q16620); settings: ATP 90 µM
[16] = target: PRKCA (human) (UniProt P17252); settings: ATP 45 µM
[17] = target: PRKCD (human) (UniProt Q05655); settings: ATP 15 µM
PRKCD (human), sequence (Q05655 whole entry, looked up): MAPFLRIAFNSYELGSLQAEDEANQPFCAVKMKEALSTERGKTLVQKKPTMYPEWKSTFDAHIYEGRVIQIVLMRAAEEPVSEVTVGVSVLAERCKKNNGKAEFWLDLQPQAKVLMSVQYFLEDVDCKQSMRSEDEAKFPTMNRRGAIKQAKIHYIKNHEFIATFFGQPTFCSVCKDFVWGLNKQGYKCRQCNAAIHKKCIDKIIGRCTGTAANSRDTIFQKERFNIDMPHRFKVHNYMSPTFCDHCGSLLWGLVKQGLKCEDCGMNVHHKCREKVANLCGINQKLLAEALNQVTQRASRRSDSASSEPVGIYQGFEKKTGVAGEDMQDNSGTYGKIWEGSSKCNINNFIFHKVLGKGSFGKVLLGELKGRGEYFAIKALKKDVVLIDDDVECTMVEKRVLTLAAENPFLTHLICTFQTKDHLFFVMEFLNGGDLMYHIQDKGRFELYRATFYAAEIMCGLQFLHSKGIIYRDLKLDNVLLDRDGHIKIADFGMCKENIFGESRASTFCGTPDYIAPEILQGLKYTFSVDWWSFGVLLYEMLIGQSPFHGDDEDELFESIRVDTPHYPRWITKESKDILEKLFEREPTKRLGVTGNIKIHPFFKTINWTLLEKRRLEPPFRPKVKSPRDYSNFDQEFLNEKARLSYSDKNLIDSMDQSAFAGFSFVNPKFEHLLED

[18] = target: PRKCG (human) (UniProt P05129); settings: ATP 15 µM
[19] = target: RPS6KA1 KD1 KD2 (human) (UniProt Q15418); settings: ATP 45 µM
RPS6KA1 KD1 KD2 (human), sequence (Q15418 whole entry, looked up): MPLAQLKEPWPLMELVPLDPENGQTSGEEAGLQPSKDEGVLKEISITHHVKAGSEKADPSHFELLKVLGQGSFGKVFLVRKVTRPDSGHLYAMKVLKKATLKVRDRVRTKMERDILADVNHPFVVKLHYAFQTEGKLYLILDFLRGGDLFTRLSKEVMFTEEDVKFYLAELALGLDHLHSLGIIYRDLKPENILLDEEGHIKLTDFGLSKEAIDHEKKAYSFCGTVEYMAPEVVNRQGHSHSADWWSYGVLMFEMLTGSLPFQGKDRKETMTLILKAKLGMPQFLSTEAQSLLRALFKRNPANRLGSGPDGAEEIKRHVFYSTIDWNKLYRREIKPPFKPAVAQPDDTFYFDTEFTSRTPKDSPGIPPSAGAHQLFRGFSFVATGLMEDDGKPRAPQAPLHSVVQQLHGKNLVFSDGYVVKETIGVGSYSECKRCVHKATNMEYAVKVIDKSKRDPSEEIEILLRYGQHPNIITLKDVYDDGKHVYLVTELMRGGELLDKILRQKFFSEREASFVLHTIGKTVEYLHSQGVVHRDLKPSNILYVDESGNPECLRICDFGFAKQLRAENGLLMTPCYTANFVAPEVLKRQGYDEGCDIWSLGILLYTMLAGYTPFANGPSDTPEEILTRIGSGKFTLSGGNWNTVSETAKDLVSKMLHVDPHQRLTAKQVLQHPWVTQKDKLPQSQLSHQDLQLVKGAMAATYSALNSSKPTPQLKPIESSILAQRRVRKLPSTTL

[20] = tested on: SGK2 (human), Q9HBY8 [S416D]; settings: ATP 15 µM
[21] = target: SGK3 (human) (UniProt Q96BR1); settings: ATP 155 µM
[22] = tested on: TEK (human), Q02763 [Q939H/Q940H]; settings: ATP 200 µM
[23] = target: TLK2 (human) (UniProt Q86UE8); settings: ATP 10 µM
[24] = target: TSSK1B (human) (UniProt Q9BXA7); settings: ATP 15 µM
[25] = target: TYRO3 (human) (UniProt Q06418); settings: ATP 45 µM
[26] = target: ZAP70 (human) (UniProt P43403); settings: ATP 15 µM

CHEK1 (human), sequence (O14757 whole entry, looked up): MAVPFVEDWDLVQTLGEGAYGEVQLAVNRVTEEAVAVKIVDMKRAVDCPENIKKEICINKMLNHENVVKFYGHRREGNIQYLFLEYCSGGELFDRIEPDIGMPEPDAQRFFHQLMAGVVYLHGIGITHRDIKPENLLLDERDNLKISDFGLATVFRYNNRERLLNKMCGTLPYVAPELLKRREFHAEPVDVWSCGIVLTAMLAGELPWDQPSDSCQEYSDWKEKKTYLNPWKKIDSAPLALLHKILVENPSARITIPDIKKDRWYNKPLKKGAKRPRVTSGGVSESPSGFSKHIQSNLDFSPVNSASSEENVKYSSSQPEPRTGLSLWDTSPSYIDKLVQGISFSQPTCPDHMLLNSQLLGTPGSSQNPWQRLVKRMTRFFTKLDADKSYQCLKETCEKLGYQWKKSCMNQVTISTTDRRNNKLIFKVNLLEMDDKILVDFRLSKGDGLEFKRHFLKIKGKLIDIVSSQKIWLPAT

residual activity ([1]; compound 1.0 µM): 1%
residual activity ([1]; compound 10.0 µM): 0%
residual activity ([2]; compound 1.0 µM): 9%
residual activity ([2]; compound 10.0 µM): 4%
residual activity ([3]; compound 1.0 µM): 72%
residual activity ([3]; compound 10.0 µM): 32%
residual activity ([4]; compound 1.0 µM): 36%
residual activity ([4]; compound 10.0 µM): 9%
residual activity ([5]; compound 1.0 µM): 71%
residual activity ([5]; compound 10.0 µM): 27%
residual activity ([6]; compound 1.0 µM): 54%
residual activity ([6]; compound 10.0 µM): 40%
residual activity ([7]; compound 1.0 µM): 93%
residual activity ([7]; compound 10.0 µM): 62%
residual activity ([8]; compound 1.0 µM): 73%
residual activity ([8]; compound 10.0 µM): 19%
residual activity ([9]; ATP 45 µM): 92%
residual activity ([9]; ATP 200 µM): 91%
residual activity ([10]; compound 1.0 µM, ATP 45 µM): 70%
residual activity ([10]; compound 1.0 µM, ATP 200 µM): 81%
residual activity ([10]; compound 10.0 µM, ATP 45 µM): 26%
residual activity ([10]; compound 10.0 µM, ATP 200 µM): 47%
residual activity ([11]; compound 1.0 µM): 102%
residual activity ([11]; compound 10.0 µM): 51%
residual activity ([12]; compound 1.0 µM): 91%
residual activity ([12]; compound 10.0 µM): 30%
residual activity ([13]; compound 1.0 µM): 75%
residual activity ([13]; compound 10.0 µM): 50%
residual activity ([14]; compound 1.0 µM): 82%
residual activity ([14]; compound 10.0 µM): 13%
residual activity ([15]; compound 1.0 µM): 32%
residual activity ([15]; compound 10.0 µM): 5%
residual activity ([16]; compound 1.0 µM): 98%
residual activity ([16]; compound 10.0 µM): 73%
residual activity ([17]; compound 1.0 µM): 99%
residual activity ([17]; compound 10.0 µM): 71%
residual activity ([18]; compound 1.0 µM): 73%
residual activity ([18]; compound 10.0 µM): 30%
residual activity ([19]; compound 1.0 µM): 86%
residual activity ([19]; compound 10.0 µM): 64%
residual activity ([20]; compound 1.0 µM): 71%
residual activity ([20]; compound 10.0 µM): 33%
residual activity ([21]; compound 1.0 µM): 85%
residual activity ([21]; compound 10.0 µM): 58%
residual activity ([22]; compound 1.0 µM): 95%
residual activity ([22]; compound 10.0 µM): 63%
residual activity ([23]; compound 1.0 µM): 71%
residual activity ([23]; compound 10.0 µM): 38%
residual activity ([24]; compound 1.0 µM): 75%
residual activity ([24]; compound 10.0 µM): 49%
residual activity ([25]; compound 1.0 µM): 97%
residual activity ([25]; compound 10.0 µM): 81%
residual activity ([26]; compound 1.0 µM): 94%
residual activity ([26]; compound 10.0 µM): 98%
SMILES: O=C1c2ccccc2-c2n[nH]c3cccc1c23
